From PMC11764660, “Self-Assembled Peptide Hydrogels PPI45 and PPI47: Novel Drug Candidates for Staphylococcus aureus Infection Treatment” (Gels, 2025)

Key:
Format in all cases: cell-based, Staphylococcus aureus
S. aureus ATCC 43300 [1] = assay: Time-dependent bactericidal kinetic curve (time-kill); conditions: 2× MIC, S. aureus ATCC 43300, start 1×10^5 CFU/mL, 37 °C, 250 rpm
Description: The mixture was subsequently incubated in a shaker at 37 °C and 250 rpm. At predetermined intervals (0, 0.5, 1, 2, 4, 6, 10, 22, and 24 h), 100 μL aliquots were withdrawn and subjected to serial 10-fold dilutions before being plated for colony counting.

S. aureus ATCC 43300 [2] = assay: PAE assay; conditions: 2×MIC, 2 h exposure of 10^8 CFU/mL at 37 °C, 1000-fold dilution; time for tenfold increase of the colony count
Description: The mixture was subsequently incubated for 2 h at 37 °C and 250 rpm. Upon completion of the incubation period, 50 µL of the solution was withdrawn and diluted 1000-fold by adding […] of pre-warmed MHB, which was designated as the 0 h time point. Subsequently, samples were collected at 0, 0.5, 1, 2, 4, 6, 8, 10, 12, and 24 h. Each sample was subjected to 10-fold serial dilutions before being plated, and colony counts were performed. PBS served as the negative control. The time required for the colony count in each treatment group to increase tenfold relative to the post-reconstruction baseline was determined as PAE.

S. aureus ATCC43300 [3] = assay: SEM observation of bacterial morphology; conditions: 2×MIC, 2 h, 37 °C, 10^8 CFU/mL
Description: This mixture was incubated at 37 °C for 2 h. The 0.01 M PBS (pH 7.4) served as the blank control. After being centrifugated at 4000 rpm for 5 min, the samples were carefully washed three times with 0.01 M PBS. Next, 1 mL of 2.5% glutaraldehyde was added to each sample and stored at 4 °C overnight. The samples were washed twice with distilled water and subsequently dehydrated through a series of ethanol solutions (50%, 70%, 85%, 95%, and 100%). Each sample received three treatments with 100% ethanol, followed by drying at the CO2 critical point, gold sputtering, and observation under a scanning electron microscope.

S. aureus ATCC43300 [4] = assay: Cell membrane integrity analysis (PI, flow cytometry); conditions: 2×MIC, 37 °C, 10^8 CFU/mL
Description: The solution was incubated at 37 °C for 0.5, 1, 1.5, and 2 h, respectively, and 0.01 M PBS (pH 7.4) was used as a blank control. After the incubation periods, each sample was centrifugated at 4000 rpm for 5 min. Subsequently, 400 µL of the supernatant was removed, and 400 µL of sterile PBS was added. The samples were washed twice and then resuspended with PBS to a final volume of 450 µL. A 50 µL volume of PI staining solution (500 µg/mL) was added, and the samples were incubated for 15 min in the dark. Finally, the cells fixed with PI were analyzed using flow cytometry.

S. aureus ATCC 43300 [5] = assay: Membrane potential (DiSC3(5)); conditions: DiSC3(5) fluorescence, 1×, 2×, 4× MIC, 30 min, 37 °C, three replicates
Description: The fluorescent probe DiSC3(5) (0.5 mM) was co-incubated with PBS (10^8 CFU/mL) of S. aureus for 30 min at 37 °C. A total of 180 µL of bacteria carrying fluorescent probes and 20 µL of peptide solution at varying concentrations were added to 96-well plates and incubated for 30 min at 37 °C. The sample treated with PBS served as the negative control, and each concentration was set as three replicates. The alterations in fluorescence (excitation wavelength: 620 nm, emission wavelength: 670 nm) were monitored in real time over a period of 30 min using a multifunctional enzyme-labeling instrument.

| Molecule | bacterial count at 6 h (S. aureus ATCC 43300 [1]) [log10 CFU/mL] | bacterial count at 24 h (S. aureus ATCC 43300 [1]) [log10 CFU/mL] | post-antibiotic effect (PAE) (S. aureus ATCC 43300 [2]) [h] | morphological changes of the bacteria by SEM (S. aureus ATCC43300 [3]) | membrane penetration rate (PI-positive bacteria) (S. aureus ATCC43300 [4]; 1 h) [%] | membrane penetration rate (PI-positive bacteria) (S. aureus ATCC43300 [4]; 1.5 h) [%] | membrane penetration rate (PI-positive bacteria) (S. aureus ATCC43300 [4]; 2 h) [%] | effect on membrane potential (S. aureus ATCC 43300 [5]) |
| --- | --- | --- | --- | --- | --- | --- | --- | --- |
| CC1COc2c(N3CCN(C)CC3)c(F)cc3c(=O)c(C(=O)O)cn1c23 (centres unmarked) [ofloxacin, Ofloxacin] | 2 | 4.15 | 0.77 | crumpled appearance with leakage of intracellular contents | 0.26 | 0.7 | 1.13 |  |
| nisin |  |  |  |  |  |  |  | depolarization |
